Values joined by “and” are separate entries in the source; they are usually repeats but may differ in a detail not shown here. Equal entries are not always repeated. Where two headings read alike, the source gives them in different places.
Assays:
[1] = rcm bond, 15-membered ring, DCM, 40.0 °C
[2] = test system: HCV dual reporter subgenomic replicon (B6b cell line); test: HCV dual reporter subgenomic replicon assay, Renilla luciferase (antiviral activity); type: cell-based; details: Hepatitis C virus, 72 h; 50% reduction of Renilla luciferase expression, 3 days incubation
Method: The compounds described herein were tested for antiviral activity utilizing a dual-reporter replicon assay as described in U.S. patent application Ser. No. 10/818,075 (the '075 application), filed Apr. 5, 2004. The disclosure of the '075 application is incorporated herein.
(§1) Cell-based antiviral activity was evaluated in the previously described HCV dual reporter subgenomic replicon system (the '075 application). With this system, the effects of a compound on both HCV replication and cell viability can be simultaneously determined by measuring the intracellular levels of two separate reporter proteins. The dicistronic selectable replicon contains the Renilla luciferase gene such that Renilla luciferase activity within stably-transfected cells serves as a marker of HCV replication. The firefly luciferase gene is stably integrated into and expressed by the Huh-7 host cells. Since firefly luciferase activity is dependent upon cellular transcription and translation, firefly luciferase activity serves as an indicator of cell viability.
(§2) The dual reporter selectable replicon cell line (B6b) was maintained in DMEM supplemented with 10% FBS, L-glutamine, non-essential amino acids, penicillin, streptomycin, and selection agents (200 ug/ml G418 and 6 ug/ml blastocidin). On the first day of the experiment, cells were trypsinized, washed, and diluted in medium lacking the selection agents. Cells were transferred to 96-well, black-walled, clear bottom plates at a density of 2×10^4 cells in 150 ul of medium per well. Cells were allowed to settle for 60 to 90 minutes while compounds were being prepared. Each compound was initially diluted to a 4× working stock (2.56% DMSO in tissue culture medium) that was then serially diluted nine times in half log increments in medium with 2.56% DMSO. Fifty microliters of each dilution were then added in triplicate to the plated cells in order to obtain final IX compound concentrations with 0.64% DMSO. Typical testing concentrations ranged from 320 uM to 10 nM. Control wells containing 0.64% DMSO without compound were also included on each plate.
(§3) After 3 days of incubation under humidity at 37° C. with 5% CO2, plates were microscopically examined for compound precipitation and cell death. Tissue culture medium was then aspirated and cells were lysed with 20 ul of 1× Passive Lysis Buffer (Promega, Madison, Wis.). Reporter activity was measured using a MicroBeta Jet 1450 (Perkin Elmer, Boston, Mass.) following sequential 50 ul additions of firefly and Renilla luciferase substrates as described in the manufacturers protocol (Promega). Luciferase activities were expressed as a percentage of the signals observed in the compound-free control wells. The amount of compound required to reduce Renilla luciferase expression by 50% is defined as the 50% effective concentration, or EC50. The amount of compound that reduces firefly luciferase expression by 50% is defined as the 50% cytotoxic concentration, or CC50. A therapeutic index (TI) is calculated by dividing the CC50 by the EC50.

in vitro = type: cell-based; details: human; 50% reduction of firefly luciferase expression, 3 days incubation; read-out: Replicon CC50
Method: as §1, §2, §3

[3] = biological target: T1, full-length NS3-NS4A enzyme (Hepatitis C virus genotype 1a, UniProt P27958); test: HCV protease assay (continuous FRET, full-length enzyme); type: biochemical; details: 3 nM full-length NS3-NS4A, 3 uM depsipeptide FRET substrate S1; competitive inhibition fit
T1 construct: 3 nM full-length NS3-NS4A enzyme
T1 sequence (P27958 1027-1657): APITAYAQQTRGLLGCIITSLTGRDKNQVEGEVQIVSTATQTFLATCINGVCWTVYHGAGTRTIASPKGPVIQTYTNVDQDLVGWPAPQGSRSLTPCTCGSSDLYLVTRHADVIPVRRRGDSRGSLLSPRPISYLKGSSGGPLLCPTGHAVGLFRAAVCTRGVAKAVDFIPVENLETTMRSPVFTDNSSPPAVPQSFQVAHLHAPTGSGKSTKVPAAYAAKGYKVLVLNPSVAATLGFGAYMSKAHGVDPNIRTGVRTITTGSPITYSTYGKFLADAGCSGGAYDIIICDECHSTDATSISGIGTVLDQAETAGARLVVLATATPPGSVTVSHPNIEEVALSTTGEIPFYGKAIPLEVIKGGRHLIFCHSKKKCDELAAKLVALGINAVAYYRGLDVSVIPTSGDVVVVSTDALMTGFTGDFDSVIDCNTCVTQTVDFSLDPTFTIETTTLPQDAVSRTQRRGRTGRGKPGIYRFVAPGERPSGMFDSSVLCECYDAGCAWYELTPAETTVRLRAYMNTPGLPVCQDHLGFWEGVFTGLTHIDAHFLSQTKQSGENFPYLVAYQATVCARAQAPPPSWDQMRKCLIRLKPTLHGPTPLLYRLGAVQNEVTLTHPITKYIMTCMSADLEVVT
T1 sequence (P27958 1658-1711): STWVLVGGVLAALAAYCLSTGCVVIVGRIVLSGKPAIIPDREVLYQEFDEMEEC
Method: HCV protease activity and compound inhibition was monitored using a continuous, fluorescence resonance energy transfer (FRET) assay. Test compounds at various concentrations were added to assay buffer (50 mM MOPS pH 7.5, 50 mM NaCl, 20% glycerol, 0.025% Triton-X 100, 1 mM tris(2-carboxyethyl)phosphine) containing 3 uM depsipeptide FRET substrate S1 (Anaspec) (see Taliani et al. Analytical Biochemistry, 240, 60-67 (1996)) in a white, non-binding 96-well plate (Corning). The reaction was started by the addition of 3 nM full-length NS3-NS4A enzyme. The increase in fluorescence intensity following peptide cleavage was monitored using a Safire fluorescence plate reader (Tecan). The excitation and emission wavelengths were 340 nm and 500 nm, respectively. Inhibition constants (KI) were calculated by non-linear regression analysis using an equation derived for competitive inhibition.

| SMILES | EC50 [2] [nM] | CC50 at 3 days (in vitro) [nM] | Ki [3] | further results |
| --- | --- | --- | --- | --- |
| COC(=O)[C@@]12C[C@H]1/C=C\CCCCCC(NC(=O)OC(C)(C)C)C(=O)N1C[C@H](Oc3cc(-c4ccccn4)nc4ccsc34)C[C@H]1C(=O)N2 (stereo partly shown) | – | – | – | ring closure, isolated yield ([1]; from C=CCCCCCC(NC(=O)OC(C)(C)C)C(=O)N1C[C@H](Oc2cc(-c3ccccn3)nc3ccsc23)C[C@H]1C(=O)N[C@]1(C(=O)OC)C[C@H]1C=C, Grubbs II (0.25 equiv), 2.0 mM, 4.0 h): 24% |
| COC(=O)[C@@]12C[C@H]1/C=C\CCCCC[C@H](NC(=O)OC(C)(C)C)C(=O)N1C[C@H](Oc3nc(-c4ccccn4)nc4ccsc34)C[C@H]1C(=O)N2 | – | – | – | ring closure, isolated yield ([1]; from C=CCCCCC[C@H](NC(=O)OC(C)(C)C)C(=O)N1C[C@H](Oc2nc(-c3ccccn3)nc3ccsc23)C[C@H]1C(=O)N[C@]1(C(=O)OC)C[C@H]1C=C, Grubbs II (0.15 equiv), 5.0 mM, 2.0 h): 25% |
| COC(=O)[C@@]12C[C@H]1/C=C\CCCCC[C@H](NC(=O)OC(C)(C)C)C(=O)N1C[C@H](Oc3nc(-c4ccccn4)nc4sccc34)C[C@H]1C(=O)N2 | – | – | – | ring closure, isolated yield ([1]; from C=CCCCCC[C@H](NC(=O)OC(C)(C)C)C(=O)N1C[C@H](Oc2nc(-c3ccccn3)nc3sccc23)C[C@H]1C(=O)N[C@]1(C(=O)OC)C[C@H]1C=C, Grubbs II (0.15 equiv), 5.0 mM, 2.0 h): 38% |
| COC(=O)[C@@]12C[C@H]1/C=C\CCCCC[C@H](NC(=O)OC(C)(C)C)C(=O)N1C[C@H](Oc3nc(-c4cc(C)nn4C)nc4ccsc34)C[C@H]1C(=O)N2 | – | – | – | ring closure, isolated yield ([1]; from C=CCCCCCC(NC(=O)OC(C)(C)C)C(=O)N1CC(Oc2nc(-c3cc(C)nn3C)nc3ccsc23)CC1C(=O)NC1(C(=O)OC)CC1C=C, Grubbs II (0.15 equiv), 5.0 mM, 2.0 h): 38% |
| Cn1ccnc1-c1cc2nccc(O[C@@H]3C[C@H]4C(=O)N[C@]5(C(=O)O)C[C@H]5/C=C\CCCCC[C@H](NC(=O)OC5CCCC5)C(=O)N4C3)c2s1 [Example 89, (2R,6S,12Z,13aS,14aR,16aS)-6-{[(Cyclopentyloxy)carbonyl]amino}-2-{[2-(1-methyl-1H-imidazol-2-yl)thieno[3,2-b]pyridin-7-yl]oxy}-5,16-dioxo-1,2,3,6,7,8,9,10,11,13a,14,15,16,16a-tetradecahydrocyclopropa[e]pyrrolo[1,2-a][1,4]diazacyclopentadecine-14a(5H)-carboxylic acid] | 500 | > 320000 | 14 nM and 13 nM | – |
| Cc1cc(-c2nc(O[C@@H]3C[C@H]4C(=O)N[C@]5(C(=O)O)C[C@H]5/C=C\CCCCC[C@H](NC(=O)OC(C)(C)C)C(=O)N4C3)c3sccc3n2)n(C)n1 [Example 61, (2R,6S,12Z,13aS,14aR,16aS)-6-[(Tert-butoxycarbonyl)amino]-2-{[2-(1,3-dimethyl-1H-pyrazol-5-yl)thieno[3,2-d]pyrimidin-4-yl]oxy}-5,16-dioxo-1,2,3,6,7,8,9,10,11,13a,14,15,16,16a-tetradecahydrocyclopropa[e]pyrrolo[1,2-a][1,4]diazacyclopentadecine-14a(5H)-carboxylic acid] | 870 | 244000 | 11.3 nM | – |
| Cc1cc(-c2nc(O[C@@H]3C[C@H]4C(=O)N[C@]5(C(=O)O)C[C@H]5/C=C\CCCCC[C@H](NC(=O)OC5CCCC5)C(=O)N4C3)c3sccc3n2)n(C)n1 [Example 58, (2R,6S,12Z,13aS,14aR,16aS)-6-{[(Cyclopentyloxy)carbonyl]amino}-2-{[2-(1,3-dimethyl-1H-pyrazol-5-yl)thieno[3,2-d]pyrimidin-4-yl]oxy}-5,16-dioxo-1,2,3,6,7,8,9,10,11,13a,14,15,16,16a-tetradecahydrocyclopropa[e]pyrrolo[1,2-a][1,4]diazacyclopentadecine-14a(5H)-carboxylic acid] | 62 | 216000 | 2.3 nM | – |
| Cn1ccnc1-c1cc2nccc(O[C@@H]3C[C@H]4C(=O)N[C@]5(C(=O)O)C[C@H]5/C=C\CCCCC[C@H](NC(=O)OC(C)(C)C)C(=O)N4C3)c2s1 [Example 86, (2R,6S,12Z,13aS,14aR,16aS)-6-[(tert-butoxycarbonyl)amino]-2-{[2-(1-methyl-1H-imidazol-2-yl)thieno[3,2-b]pyridin-7-yl]oxy}-5,16-dioxo-1,2,3,6,7,8,9,10,11,13a,14,15,16,16a-tetradecahydrocyclopropa[e]pyrrolo[1,2-a][1,4]diazacyclopentadecine-14a(5H)-carboxylic acid] | 15000 | > 320000 | 69 nM | – |
